Assay results published in EP2348038A1, “Method for determining the activity of transglutaminase factor XIIIa” (PHILIPPS-UNIVERSITÄT MARBURG, priority 2010, dated 2011).
Peptide text beside a SMILES is read from it. * marks the point of attachment. pNA = O=[N+]([O-])c1ccc(N*)cc1

Columns and labels:
[1] = biological target: T1, FXllla (Homo sapiens, UniProt P00488); experiment: Initial experiments: cleavage by FXIIIa of Glu(pNA) peptides derived from the Berichrom substrate sequence; format: biochemical
T1 sequence (P00488 39-732 limits assumed): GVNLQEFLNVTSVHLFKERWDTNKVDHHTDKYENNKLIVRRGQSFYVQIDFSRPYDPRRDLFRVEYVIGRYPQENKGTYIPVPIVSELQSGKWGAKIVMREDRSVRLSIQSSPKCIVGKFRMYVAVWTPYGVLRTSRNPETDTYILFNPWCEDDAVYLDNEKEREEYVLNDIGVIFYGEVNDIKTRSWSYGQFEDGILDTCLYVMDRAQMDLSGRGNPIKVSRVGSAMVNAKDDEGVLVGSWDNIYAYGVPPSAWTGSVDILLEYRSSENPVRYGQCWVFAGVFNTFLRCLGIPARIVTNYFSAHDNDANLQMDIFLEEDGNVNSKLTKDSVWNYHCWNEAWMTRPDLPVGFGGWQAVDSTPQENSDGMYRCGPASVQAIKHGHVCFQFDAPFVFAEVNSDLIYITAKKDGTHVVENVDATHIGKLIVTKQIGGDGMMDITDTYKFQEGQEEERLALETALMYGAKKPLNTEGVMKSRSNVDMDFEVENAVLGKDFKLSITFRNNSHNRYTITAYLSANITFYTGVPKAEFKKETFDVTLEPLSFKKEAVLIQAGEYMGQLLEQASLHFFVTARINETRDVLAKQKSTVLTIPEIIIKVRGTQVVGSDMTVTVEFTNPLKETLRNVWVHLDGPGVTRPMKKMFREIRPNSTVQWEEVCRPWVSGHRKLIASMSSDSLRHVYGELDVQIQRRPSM

[2] = biological target: T2, Faktor XIIIa (Homo sapiens, UniProt P00488); experiment: Cleavage of pNA substrates by activated factor XIIIa, absorbance at 405 nm (Michaelis-Menten kinetics and pre-test); format: biochemical; conditions: for Substratspaltung (Vortest): pre-test at constant substrate concentration, 405 nm; for Substratspaltung (Vortest) / Vmax: 37 °C; for Vmax: change of absorbance at 405 nm per s, enzyme ca. 1,25 Einheiten/ml
T2 construct: Aktivierung des Zymogens FXIII zu Faktor XIIIa; purchased Aventis Behring Fibrogammin HS
T2 sequence (P00488 39-732 limits assumed): T1 sequence (P00488 39-732 limits assumed)
Protocol: 250 Einheiten lyophilisiertes Fibrogammin HS (Aventis Behring) wurden in 4 ml Wasser gelöst, als 100 µl Portionen aliquotiert und bei -80 °C gelagert. 100 µl dieser Lösung enthalten 6,25 Einheiten FXIII.
100 µl des aliqotierten Fibrogammins (entspricht 6,25 Einheiten) wurden mit 500 µl TBS-Puffer (50 mM Tris-HCl, pH 7,5 in 0,9% (w/v) NaCl), 360 µl einer 0.9 % NaCl-Lösung, 10 µl einer 1 M CaCl2-Lösung und 20 µl einer Thrombinlösung (Rinderthrombin: 14,2 U in 20 µl) versetzt. Der Ansatz wurde 20 min bei 37 °C inkubiert, danach wurden 10 µl einer Lösung mit rekombinantem Hirudin zugesetzt (r-Hirudin: HBW 023 mit 13442 IU mg^-1, Stammlösung des r-Hirudin = 1 mg/ml). Dieser Aktivierungsansatz besitzt ein Gesamtvolumen von 1 ml, der aktivierte Faktor Xllla wurde bei 37 °C aufbewahrt und für die folgenden kinetischen Messungen verwendet.
Die Messungen wurden bei 405 nm und 37 °C mit einem Microplate Reader der Firma Labsystems (iEMS Reader MF) mit folgendem Messansatz durchgeführt: • 150 µl TBS-Puffer (siehe oben, der Puffer kann gegebenenfalls auch eine Aminkomponente enthalten, beispielsweise H-Gly-Ethylester oder H-Gly-Gly-Ethylester oder ein anderes Amin, falls vorhanden ist die finale Konzentration des Amins im Messansatz 2,5 mM oder höher) • 50 µl Substratlösung • 50 µl Enzymlösung (im Messansatz ca. 1,25 Einheiten/ml)
Sämtliche Lösungen wurden vor Benutzung bei 37 °C aufbewahrt, vor Zugabe der FXllla-Lösung wurde die Mikroreadermessplatte nochmals 5 min bei 37 °C im Messgerät temperiert. Nach Zugabe der FXllla-Lösung wurde die Substratspaltung gestartet und die Änderung der Absorption bei 405 nm gemessen. Für einen Vortest wurde eine konstante Substratkonzentration verwendet. […] Wir haben vermutet, dass vor allem die Aminosäuren N- und C-terminal des Glu(pNA)-Restes wichtig für die Substraterkennung sind, deshalb wurde das N-terminale Glycin und das an dritter Position befindliche Serin innerhalb der Berichromsequenz durch andere Aminosäurereste ersetzt. Durch den Vortest wurde festgestellt, dass einige dieser Substrate deutlich schneller als die Derivate S1 und S2 gespalten werden. Für ausgewählte Substrate wurden die Substratkonzentrationen im Messansatz variiert und die bestimmten Umsatzgeschwindigkeiten als Funktion der Substratkonzentration entsprechend der Michaelis-Menten-Gleichung v=Vmax·[S]/(Km+[S]) aufgetragen und somit die kinetischen Konstanten Km und Vmax bestimmt, wobei Vmax in der Einheit Absorptionsänderung bei 405 nm/s erhalten wurde. Dies ist in Fig. 1 und Fig. 2 gezeigt.

Structure (SMILES)	Spaltung durch FXllla [1]	Vmax ([2]; pNA substrates)	also measured
CC[C@H](C)[C@H](NC(=O)[C@@H](NC(=O)[C@H](CCCCN)NC(=O)[C@H](CO)NC(=O)[C@H](CCC(=O)Nc1ccc([N+](=O)[O-])cc1)NC(C)=O)C(C)C)C(=O)NCC(N)=O [Ac-Glu(pNA)-Ser-Lys-Val-Ile-Gly-NH2] (Ac-E(pNA)SKVIG-NH2)	fast gar nicht oder nur sehr langsam gepalten	–	–
CC[C@H](C)[C@H](NC(=O)[C@@H](NC(=O)[C@H](CCCCN)NC(=O)[C@H](CO)NC(=O)[C@H](CCC(=O)Nc1ccc([N+](=O)[O-])cc1)NC(=O)CN)C(C)C)C(=O)NCC(N)=O [Substrat S2, H-Gly-Glu(pNA)-Ser-Lys-Val-Ile-Gly-NH2] (H-GE(pNA)SKVIG-NH2)	–	–	Substratspaltung (Vortest) [2]: nur langsam umgesetzt
CC[C@H](C)[C@H](NC(=O)[C@@H](NC(=O)[C@H](CCCCN)NC(=O)[C@H](CO)NC(=O)[C@H](CCC(=O)Nc1ccc([N+](=O)[O-])cc1)NC(=O)CNC(=O)[C@@H]1CCCN1)C(C)C)C(=O)NCC(N)=O [H-Pro-Gly-Glu(pNA)-Ser-Lys-Val-Ile-Gly-NH2] (H-PGE(pNA)SKVIG-NH2)	fast gar nicht oder nur sehr langsam gepalten	–	–
CC[C@H](C)[C@H](NC(=O)[C@@H](NC(=O)[C@H](CCCCN)NC(=O)[C@@H](NC(=O)[C@H](CCC(=O)Nc1ccc([N+](=O)[O-])cc1)NC(=O)[C@@H](N)Cc1ccc(O)cc1)C(C)C)C(C)C)C(=O)NCC(N)=O [Substrat S10, H-Tyr-Glu(pNA)-Val-Lys-Val-Ile-Gly-NH2] (H-YE(pNA)VKVIG-NH2)	–	0,95 × 10^-4 dOD/s	–
CC[C@H](C)[C@H](NC(=O)[C@@H](NC(=O)[C@H](CCCCN)NC(=O)[C@@H](NC(=O)[C@H](CCC(=O)Nc1ccc([N+](=O)[O-])cc1)NC(=O)[C@@H](N)Cc1ccc(O)cc1)C(C)C)C(C)C)C(N)=O [Substrat S12, H-Tyr-Glu(pNA)-Val-Lys-Val-Ile-NH2] (H-YE(pNA)VKVI-NH2)	–	1.33 × 10^-4 dOD/s	–
CC[C@H](C)[C@H](NC(=O)[C@@H](NC(=O)[C@H](CCCCN)NC(=O)[C@H](CO)NC(=O)[C@H](CCC(=O)Nc1ccc([N+](=O)[O-])cc1)NC(=O)CNC(=O)[C@@H]1CCCN1C(=O)CNC(=O)[C@@H](N)CC(C)C)C(C)C)C(=O)NCC(N)=O [H-Leu-Gly-Pro-Gly-Glu(pNA)-Ser-Lys-Val-Ile-Gly-NH2] (H-LGPGE(pNA)SKVIG-NH2)	nur sehr langsam von FXllla gepalten	–	–
CC[C@H](C)[C@H](NC(=O)[C@@H](NC(=O)[C@H](CCCCN)NC(=O)[C@H](CO)NC(=O)[C@H](CCC(=O)Nc1ccc([N+](=O)[O-])cc1)NC(=O)CNC(=O)[C@@H]1CCCN1C(=O)CN)C(C)C)C(=O)NCC(N)=O [H-Gly-Pro-Gly-Glu(pNA)-Ser-Lys-Val-Ile-Gly-NH2] (H-GPGE(pNA)SKVIG-NH2)	fast gar nicht oder nur sehr langsam gepalten	–	–
CC[C@H](C)[C@H](NC(=O)[C@@H](NC(=O)[C@H](CCCCN)NC(=O)[C@H](CO)NC(=O)[C@@H](N)CCC(=O)Nc1ccc([N+](=O)[O-])cc1)C(C)C)C(=O)NCC(N)=O [H-Glu(pNA)-Ser-Lys-Val-Ile-Gly-NH2] (H-E(pNA)SKVIG-NH2)	fast gar nicht oder nur sehr langsam gepalten	–	–
CC(C)C[C@H](NC(=O)[C@@H]1CCCN1C(=O)[C@H](CO)NC(=O)[C@@H](NC(=O)[C@H](CC(N)=O)NC(=O)[C@H](CCC(=O)O)NC(=O)[C@H](CCC(=O)Nc1ccc([N+](=O)[O-])cc1)NC(=O)[C@@H](N)CC(N)=O)C(C)C)C(N)=O [Substrat S1, H-Asn-Glu(pNA)-Glu-Asn-Val-Ser-Pro-Leu-NH2] (H-NE(pNA)ENVSPL-NH2)	–	–	Substratspaltung (Vortest) [2]: praktisch kaum gespalten
CC[C@H](C)[C@H](NC(=O)[C@@H](NC(=O)[C@H](CCCNC(=N)N)NC(=O)[C@@H](NC(=O)[C@H](CCC(=O)Nc1ccc([N+](=O)[O-])cc1)NC(=O)[C@@H](N)Cc1ccc(O)cc1)C(C)C)C(C)C)C(=O)NCC(N)=O [Substrat S16, H-Tyr-Glu(pNA)-Val-Arg-Val-Ile-Gly-NH2] (H-YE(pNA)VRVIG-NH2)	–	0,8 × 10^-4 dOD/s	Eignung als Substrat ([2]; pNA substrates, see Fig. 2): geeignete Substrate
